The nature of the data set: mn = molality of the nth substance listed, in mol/kg. The note with it: 101 kPa, Liquid, m1 = 0.512; for speed of sound: Sing-around technique in a fixed-path interferometer; for mass density: Vibrating tube method.

± gives the expanded uncertainty stated by the source.

The record followed here is the NIST ThermoML archive (doi:10.1021/je200146j).

With `O=[N+]([O-])[O-].[K+]` [potassium nitrate] + O, the speed of sound is recorded as 1517.8 ± 4.1 m/s (298.15 K); 1526.8 ± 4.1 m/s (303.15 K); 1536.3 ± 4.1 m/s (308.15 K); 1544.4 ± 4.1 m/s (313.15 K); 1551.1 ± 4.1 m/s (318.15 K); 1556.6 ± 4.1 m/s (323.15 K). Besides, the mass density reads like this: (298.15 K) 1027.98 ± 1 kg/m3; (303.15 K) 1026.22 ± 1 kg/m3; (308.15 K) 1024.1 ± 1 kg/m3; (313.15 K) 1022.05 ± 1 kg/m3; (318.15 K) 1020.2 ± 1 kg/m3; (323.15 K) 1018.2 ± 1 kg/m3.

For the molecule `O=S(=O)([O-])[O-].[K+].[K+]` [potassium sulfate] + O, the speed of sound worked out at 1563.6 ± 4.1 m/s (298.15 K); 1571.6 ± 4.1 m/s (303.15 K); 1580.3 ± 4.1 m/s (308.15 K); 1587.6 ± 4.1 m/s (313.15 K); 1593.5 ± 4.1 m/s (318.15 K); 1598.3 ± 4.1 m/s (323.15 K). The mass density runs as follows: (298.15 K) 1063.81 ± 1 kg/m3; (303.15 K) 1062.02 ± 1 kg/m3; (308.15 K) 1060.06 ± 1 kg/m3; (313.15 K) 1057.74 ± 1 kg/m3; (318.15 K) 1055.14 ± 1 kg/m3; (323.15 K) 1052.95 ± 1 kg/m3.
